Here are results for 15 compounds from US5223504A, “Xanthine compounds and compositions, and methods of using them” (Laboratorios Almirall SA, priority 1989, dated 1993).

The subject of assay [1] is PDE IV. The assay can be described thus: Guinea-pig right ventricle strips sensitized with a PDE III inhibitor (e.g. amrinone): increase in developed tension (PDE IV inhibitory activity). In kind it is cell-based. The settings on record: concentration causing 50% increase in developed tension; strips pre-treated with selective PDE III inhibitor (e.g. amrinone) 10 minutes before; 37° C., 1 Hz; read-out: Guinea-Pig Sensitized right ventricle strips (EC50μ M). On the procedure:
(§1) There is, however, a synergistic interaction between selective PDE III and PDE IV inhibitors in guinea-pig ventricle. […] There were then mounted in organ baths containing modified Krebs-Henseleit solution of the following composition (mM): NaCl 118; NaHCO3 25; Glucose 11; KCl 5.4; CaCl2 2.5; NaH2PO4 1.2 and MgCl2 0.8. The physiological buffer was maintained at 37° C. and continually aerated with 95% O2 / 5% CO2 v/v. The preparations were placed under 1 g resting tension and electrically stimulated to contract at 1 Hz whilst force of contraction was measured using an isometric force transducer. Preparations were equilibrated for 60 minutes during which they were washed every 15 minutes with fresh buffer. […] Concentrations causing a 50% increase (EC50) were calculated.

Assay [2] addresses T1, PDE III (Cavia porcellus, UniProt H0VIU9).
T1 construct: their hearts were removed and 2 ventricular preparations; from tissue; host or cells: guinea-pig right ventricle strips
T1 sequence (H0VIU9 1-1132): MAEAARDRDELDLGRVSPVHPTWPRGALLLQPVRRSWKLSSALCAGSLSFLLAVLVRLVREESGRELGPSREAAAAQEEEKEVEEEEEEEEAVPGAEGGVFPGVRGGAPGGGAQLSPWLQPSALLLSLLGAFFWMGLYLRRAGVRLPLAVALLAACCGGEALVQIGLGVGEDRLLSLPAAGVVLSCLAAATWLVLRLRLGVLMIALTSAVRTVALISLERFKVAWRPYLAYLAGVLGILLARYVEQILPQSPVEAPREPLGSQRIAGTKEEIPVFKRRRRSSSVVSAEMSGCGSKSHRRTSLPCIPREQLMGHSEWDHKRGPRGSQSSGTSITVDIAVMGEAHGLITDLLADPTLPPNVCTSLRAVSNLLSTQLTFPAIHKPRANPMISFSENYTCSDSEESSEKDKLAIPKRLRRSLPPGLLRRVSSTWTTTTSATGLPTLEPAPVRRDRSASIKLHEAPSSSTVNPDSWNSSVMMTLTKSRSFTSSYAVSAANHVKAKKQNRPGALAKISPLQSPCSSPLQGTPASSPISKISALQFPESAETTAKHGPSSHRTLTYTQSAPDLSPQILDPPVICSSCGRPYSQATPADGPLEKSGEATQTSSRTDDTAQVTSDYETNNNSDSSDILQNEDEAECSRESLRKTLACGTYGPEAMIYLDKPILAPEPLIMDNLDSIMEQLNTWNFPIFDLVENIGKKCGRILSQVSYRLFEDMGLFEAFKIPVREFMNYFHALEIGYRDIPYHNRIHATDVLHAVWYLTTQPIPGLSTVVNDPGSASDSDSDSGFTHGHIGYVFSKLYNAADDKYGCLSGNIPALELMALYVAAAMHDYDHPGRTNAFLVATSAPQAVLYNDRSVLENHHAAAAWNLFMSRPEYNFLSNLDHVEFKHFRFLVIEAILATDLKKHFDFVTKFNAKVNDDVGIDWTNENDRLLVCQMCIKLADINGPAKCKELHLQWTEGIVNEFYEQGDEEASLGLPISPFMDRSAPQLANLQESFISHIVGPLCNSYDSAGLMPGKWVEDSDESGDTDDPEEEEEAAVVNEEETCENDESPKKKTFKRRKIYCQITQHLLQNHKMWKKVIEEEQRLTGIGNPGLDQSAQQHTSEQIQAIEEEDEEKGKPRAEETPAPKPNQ
Put plainly: Non-sensitized guinea-pig right ventricle strips: increase in developed tension (PDE III inhibitory activity). In kind it is cell-based. The settings on record: concentration causing 50% increase in developed tension; untreated (non-sensitized) strips; 37° C., 1 Hz; read-out: Guinea-Pig Non-Sensitized right ventricle strips (EC50μ M). On the procedure:
as §1

Assay [3] has as its system isolated guinea-pig ventricles. The settings on record: literature (Gristwood and Owen, Br. J. Pharmacol., 87, 91P., 1985); cited from earlier work.

Regarding `CCCn1c(=O)c2[nH]cnc2n(-c2ccc(Cl)cc2)c1=O` [Compound 1, 1-n-propyl-3-(4-chlorophenyl)-xanthine], the EC50 in assay [1] is 1.6 µM; in assay [2], over 100 µM. The corresponding values for `CCCn1c(=O)c2[nH]cnc2n(-c2cccc(Cl)c2)c1=O` [Compound 2] are 0.1 µM and over 100 µM. As to `CCCn1c(=O)c2[nH]cnc2n(-c2ccc(Br)cc2)c1=O` [Compound 5], the results for the EC50 in assay [1] and in assay [2] were 0.9 µM and over 100 µM, respectively. The corresponding values for `CCCn1c(=O)c2[nH]cnc2n(-c2cccc(OC)c2)c1=O` [Compound 9] are 0.2 µM and over 100 µM. Turning to `CCCn1c(=O)c2[nH]cnc2n(-c2cccc([N+](=O)[O-])c2)c1=O` [Compound 10], the results for the EC50 in assay [1] and in assay [2] were 0.4 µM and over 100 µM, respectively. The corresponding values for `CCCn1c(=O)c2[nH]cnc2n(-c2ccc(Cl)c(Cl)c2)c1=O` [Compound 12, 1-n-propyl-3-(3,4-dicholorophenyl)-xanthine] are 1.3 µM and over 100 µM.

On to `CCCCn1c(=O)c2[nH]cnc2n(-c2ccc(F)cc2)c1=O` [Compound 18], for which the EC50 was 0.2 µM in assay [1] and over 100 µM in assay [2]. The corresponding values for `CCCCn1c(=O)c2[nH]cnc2n(-c2ccc(OC)cc2)c1=O` [Compound 20] are 0.3 µM and over 100 µM. The corresponding values for `CCCCn1c(=O)c2[nH]cnc2n(-c2cccc(OC)c2)c1=O` [Compound 21, 1-n-butyl-3-(3-methoxyphenyl)-xanthine] are 1.2 µM and over 100 µM.

Consider `CCCCCCn1c(=O)c2[nH]cnc2n(-c2ccc3c(c2)OCO3)c1=O` [Compound 36, 1-n-hexyl-3-(3,4-methylenedioxyphenyl)-xanthine], for which the EC50 in assay [1] is 1 µM; in assay [2], over 100 µM.

Take `Cn1c(=O)c2[nH]cnc2n(-c2ccccc2)c1=O` [Compound A, 1methyl-3-phenylxanthine, reference compound]: the EC50 is 8.9 µM in assay [1] and over 100 µM in assay [2].

Consider `CCCn1c(=O)c2[nH]c(C)nc2n(-c2ccccc2)c1=O` [Compound B, 1propyl-3-phenyl-8-methylxanthine, reference compound], for which the EC50 in assay [1] is 7 µM; in assay [2], over 100 µM. For the compound `CC(=O)Nc1ccc(-c2c[nH]c(=O)cn2)cc1` [SK&F 94120], in assay [3], the “inotropic response in isolated guinea-pig ventricles” value was “produce a positive inotropic response”.

For `Cn1c(=O)c2[nH]cnc2n(C)c1=O` [THEOPHYLLINE, reference compound], the EC50 in assay [1] was 1520 µM; in assay [2], 1000 µM. As for `COc1ccc(C2CNC(=O)C2)cc1OC1CCCC1` (stereo not shown) [rolipram], the “inotropic response in isolated guinea-pig ventricles” value in assay [3] is “have no effect”.
